Structures can show the parent of a compound that is named as a salt. Where two headings read alike, the source gives them in different places. Non-standard residues stand in square brackets, D forms with d. Residues, ends and D or L forms follow the SMILES beside them. dHis(τ-Bn) = N[C@H](Cc1cn(Cc2ccccc2)cn1)C(=O)O; pGlu = O=C1CC[C@@H](C(=O)O)N1
Tests used:
[1] = Stability in aqueous media (PBS pH 7.4); type: physicochemical; design: unit not given here; details: phosphate buffer solution (PBS); PBS pH 7.4, 37° C., samples at T=0, 4, 24, 96 h; read-out: Stability grading (t1/2)
Description: LC/MS data was collected for compound identity.

GnRHR = target: T1, GnRHR (Homo sapiens, UniProt P30968); assay: Calcium assay in CHO-K1 cells (Genscript), FLIPR; type: cell-based; details: CHO-K1/GnRHR/Ga15 cells, relative to agonist control, read-out: GNRHR Stimulation at 1 μM
T1 construct: host or cells: CHO-K1 (CHO-K1/GnRHR/Ga15)
T1 sequence (P30968 1-328): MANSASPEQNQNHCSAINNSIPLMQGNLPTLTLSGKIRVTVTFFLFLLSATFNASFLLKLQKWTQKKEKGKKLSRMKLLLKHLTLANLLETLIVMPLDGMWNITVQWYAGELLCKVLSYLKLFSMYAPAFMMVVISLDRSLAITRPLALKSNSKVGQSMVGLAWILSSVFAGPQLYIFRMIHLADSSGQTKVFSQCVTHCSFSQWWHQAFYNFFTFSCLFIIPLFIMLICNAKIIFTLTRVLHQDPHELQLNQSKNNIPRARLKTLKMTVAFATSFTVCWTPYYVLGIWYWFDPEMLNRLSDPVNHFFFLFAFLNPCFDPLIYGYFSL
Method: Test article sample solutions were dissolved in HBSS buffer (with 20 mM HEPES buffer, pH 7.4) to form the 5× working solution. FLIPR® Calcium 4 assay kit from Molecular devices (R8141) was used as required. In brief, CHO-K1 cells expressing GnRHR (CHO-K1/GnRHR/Ga15, Genscript accession NM_000406) were respectively cultured in the 10-cm dishes and maintained at 37° C./5% CO2. CHO-K1 cells expressing GNRHR were respectively seeded in a 384-well black-wall, clear-bottom plate at a density of 15,000 cells per well in 20 μl of growth medium about 18 hours prior to the day of experiment and maintained at 37° C./5% CO2. Then, 20 μl of dye loading solution was added into the wells and the plates were subsequently placed into a 37° C. incubator for 60 minutes, followed by a 15 minutes' incubation at room temperature. At last, 10 μl of compounds or control agonist were added into respective wells of the assay plate during reading in FLIPR. The plate containing 5× compound and control agonist solution was placed in FLIPR. Solutions were added into the cell plate automatically at the 20 seconds and the fluorescence signal was monitored for an additional 100 seconds (21 sec to 120 sec.). Data were recorded by ScreenWorks (version 3.1) as FMD files with FLIPR and stored on the GenScript computer network for off-line analysis. Data acquisition and analyses was performed using ScreenWorks (version 3.1) program and exported to Excel. The average value of the first 20 seconds' reading was calculated as the baseline and the relative fluorescent units (ΔRFU) intensity values were calculated by subtracting the average value of baseline from the maximum fluorescent units (21 s to 120 s).
The % Stimulation was calculated with the following equation: % Stimulation=(ΔRFUCompound−ΔRFUBackground)/(ΔRFUAgonist control−ΔRFUBackground)×100
Dose response curves were fitted with four-parameter-logistic-equation by the software GraphPad Prism 6.
Equation: four parameter logistic equation. Y=Bottom+(Top-Bottom)/(1+10^((Log EC50−X)×Hillslope))
X is the logarithm of concentration. Y is the response.

[2] = Solubility in PBS (LC/UV AUC trend); details: PBS pH 7.4, 0.2 mg/ml; rating 1 (good) to 5 (poor)
[3] = pH 7.4

SMILES: CCNC(=O)[C@@H]1CCCN1C(=O)[C@H](CCCNC(=N)N)NC(=O)[C@H](CC(C)C)NC(=O)[C@@H](CC(C)C)NC(=O)[C@H](Cc1c[nH]cn1)NC(=O)[C@H](CO)NC(=O)[C@H](Cc1c[nH]c2ccccc12)NC(=O)[C@H](Cc1c[nH]cn1)NC(=O)[C@@H]1CCC(=O)N1 [Compound 42, pGlu-His-Trp-Ser-His-D-Leu-Leu-Arg-Pro-NHEt] ([pGlu]HWSH[dL]LRP-NHEt)
- half-life at 0.2 mg/ml [1]: > 96
- activation at 1 µM (GnRHR): 102%
- Solubility grading [2]: 1

SMILES: CCNC(=O)[C@@H]1CCCN1C(=O)[C@H](CCCNC(=N)N)NC(=O)[C@H](Cc1c[nH]c2ccccc12)NC(=O)[C@@H](CC(C)C)NC(=O)[C@H](Cc1c[nH]cn1)NC(=O)[C@H](CO)NC(=O)[C@H](Cc1c[nH]c2ccccc12)NC(=O)[C@H](Cc1c[nH]cn1)NC(=O)[C@@H]1CCC(=O)N1 [Compound 47, pGlu-His-Trp-Ser-His-D-Leu-Trp-Arg-Pro-NHEt] ([pGlu]HWSH[dL]WRP-NHEt)
- half-life at 0.2 mg/ml [1]: > 96
- activation at 1 µM (GnRHR): 119%
- Solubility grading [2]: 1

SMILES: CCNC(=O)[C@@H]1CCCN1C(=O)[C@H](Cc1ccc(O)cc1)NC(=O)[C@H](Cc1c[nH]c2ccccc12)NC(=O)[C@@H](CC(C)C)NC(=O)[C@H](Cc1c[nH]cn1)NC(=O)[C@H](CO)NC(=O)[C@H](Cc1c[nH]c2ccccc12)NC(=O)[C@H](Cc1c[nH]cn1)NC(=O)[C@@H]1CCC(=O)N1 [Compound 50, pGlu-His-Trp-Ser-His-D-Leu-Trp-Tyr-Pro-NHEt] ([pGlu]HWSH[dL]WYP-NHEt)
- half-life at 0.2 mg/ml [1]: > 96
- activation at 1 µM (GnRHR): 105%
- Solubility grading [2]: 1

SMILES: CCNC(=O)[C@@H]1CCCN1C(=O)[C@H](CCCNC(=N)N)NC(=O)[C@H](CC(C)C)NC(=O)[C@@H](Cc1cn(Cc2ccccc2)cn1)NC(=O)[C@H](Cc1c[nH]cn1)NC(=O)[C@H](CO)NC(=O)[C@H](Cc1c[nH]c2ccccc12)NC(=O)[C@H](Cc1c[nH]cn1)NC(=O)[C@@H]1CCC(=O)N1 [Compound 56, pGlu-His-Trp-Ser-His-D-Bhi-Leu-Arg-Pro-NHEt] ([pGlu]HWSH[dHis(τ-Bn)]LRP-NHEt)
- half-life at 0.2 mg/ml [1]: > 96
- activation at 1 µM (GnRHR): 96%
- Solubility grading [2]: 1

SMILES: CCNC(=O)[C@@H]1CCCN1C(=O)[C@H](Cc1ccc(O)cc1)NC(=O)[C@H](Cc1c[nH]c2ccccc12)NC(=O)[C@@H](Cc1cn(Cc2ccccc2)cn1)NC(=O)[C@H](Cc1ccc(O)cc1)NC(=O)[C@H](CO)NC(=O)[C@H](Cc1c[nH]c2ccccc12)NC(=O)[C@H](Cc1c[nH]cn1)NC(=O)[C@@H]1CCC(=O)N1 [Compound 62, pGlu-His-Trp-Ser-Tyr-D-Bhi-Trp-Tyr-Pro-NHEt] ([pGlu]HWSY[dHis(τ-Bn)]WYP-NHEt)
- half-life at 0.2 mg/ml [1]: < 96
- activation at 1 µM (GnRHR): 77%
- Solubility grading [2]: 5

SMILES: CCNC(=O)[C@@H]1CCCN1C(=O)[C@H](Cc1ccc(O)cc1)NC(=O)[C@H](Cc1c[nH]c2ccccc12)NC(=O)[C@@H](Cc1cn(Cc2ccccc2)cn1)NC(=O)[C@H](Cc1c[nH]cn1)NC(=O)[C@H](CO)NC(=O)[C@H](Cc1c[nH]c2ccccc12)NC(=O)[C@H](Cc1c[nH]cn1)NC(=O)[C@@H]1CCC(=O)N1 [Compound 63, pGlu-His-Trp-Ser-His-D-Bhi-Trp-Tyr-Pro-NHEt] ([pGlu]HWSH[dHis(τ-Bn)]WYP-NHEt)
- half-life at 0.2 mg/ml [1]: < 96
- activation at 1 µM (GnRHR): 77%
- Solubility grading [2]: 5

SMILES: NC(=O)CNC(=O)[C@@H]1CCCN1C(=O)[C@H](Cc1ccc(O)cc1)NC(=O)[C@H](Cc1c[nH]c2ccccc12)NC(=O)[C@@H](Cc1c[nH]c2ccccc12)NC(=O)[C@H](Cc1ccc(O)cc1)NC(=O)[C@H](CO)NC(=O)[C@H](Cc1c[nH]c2ccccc12)NC(=O)[C@H](Cc1c[nH]cn1)NC(=O)[C@@H]1CCC(=O)N1 [Compound 64, pGlu-His-Trp-Ser-Tyr-D-Trp-Trp-Tyr-Pro-Gly-amide] ([pGlu]HWSY[dW]WYPG-NH2)
- half-life at 0.2 mg/ml [1]: < 96
- activation at 1 µM (GnRHR): 50%
- Solubility grading [2]: 5

SMILES: N=C(N)NCCC[C@H](NC(=O)[C@H](Cc1c[nH]c2ccccc12)NC(=O)[C@@H](Cc1c[nH]c2ccccc12)NC(=O)[C@H](Cc1ccc(O)cc1)NC(=O)[C@H](CO)NC(=O)[C@H](Cc1c[nH]c2ccccc12)NC(=O)[C@H](Cc1c[nH]cn1)NC(=O)[C@@H]1CCC(=O)N1)C(=O)N1CCC[C@H]1C(=O)NCC(N)=O [Compound 66, pGlu-His-Trp-Ser-Tyr-D-Trp-Trp-Arg-Pro-Gly-amide] ([pGlu]HWSY[dW]WRPG-NH2)
- half-life at 0.2 mg/ml [1]: > 96
- activation at 1 µM (GnRHR): 83%
- Solubility grading [2]: 5

SMILES: CCNC(=O)[C@@H]1CCCN1C(=O)[C@H](CCCNC(=N)N)NC(=O)[C@H](Cc1c[nH]c2ccccc12)NC(=O)[C@@H](Cc1cn(Cc2ccccc2)cn1)NC(=O)[C@H](Cc1ccc(O)cc1)NC(=O)[C@H](CO)NC(=O)[C@H](Cc1c[nH]c2ccccc12)NC(=O)[C@H](Cc1c[nH]cn1)NC(=O)[C@@H]1CCC(=O)N1 [Compound 67, pGlu-His-Trp-Ser-Tyr-D-Bhi-Trp-Arg-Pro-NHEt] ([pGlu]HWSY[dHis(τ-Bn)]WRP-NHEt)
- half-life at 0.2 mg/ml [1]: < 96
- activation at 1 µM (GnRHR): 117%
- Solubility grading [2]: 1

SMILES: CC(C)C[C@H](NC(=O)[C@@H](Cc1c[nH]c2ccccc12)NC(=O)[C@H](Cc1c[nH]cn1)NC(=O)[C@H](CO)NC(=O)[C@H](Cc1c[nH]c2ccccc12)NC(=O)[C@H](Cc1c[nH]cn1)NC(=O)[C@@H]1CCC(=O)N1)C(=O)N[C@@H](CCCNC(=N)N)C(=O)N1CCC[C@H]1C(=O)NCC(N)=O [Compound 68, pGlu-His-Trp-Ser-His-D-Trp-Leu-Arg-Pro-Gly-amide] ([pGlu]HWSH[dW]LRPG-NH2)
- half-life at 0.2 mg/ml [1]: > 96
- activation at 1 µM (GnRHR): 86%
- Solubility grading [2]: 1

SMILES: CCNC(=O)[C@@H]1CCCN1C(=O)[C@H](CCCNC(=N)N)NC(=O)[C@H](CC(C)C)NC(=O)[C@@H](Cc1cn(Cc2ccccc2)cn1)NC(=O)[C@H](Cc1ccc(O)cc1)NC(=O)[C@H](CO)NC(=O)[C@H](Cc1c[nH]c2ccccc12)NC(=O)[C@H](Cc1cnc[nH]1)NC(=O)[C@@H]1CCC(=O)N1 [Histrelin TFA]
- Solubility grading [3]: 2

SMILES: CCNC(=O)[C@@H]1CCCN1C(=O)[C@H](CCCNC(=N)N)NC(=O)[C@H](CC(C)C)NC(=O)[C@@H](Cc1cn(Cc2ccccc2)cn1)NC(=O)[C@H](Cc1ccc(O)cc1)NC(=O)[C@H](CO)NC(=O)[C@H](Cc1c[nH]c2ccccc12)NC(=O)[C@H](Cc1cnc[nH]1)NC(=O)[C@@H]1CCC(=O)N1 [Histrelin acetate]
- Solubility grading [3]: 4

SMILES: CCNC(=O)[C@@H]1CCCN1C(=O)[C@H](CCCNC(=N)N)NC(=O)[C@H](CC(C)C)NC(=O)[C@@H](CC(C)C)NC(=O)[C@H](Cc1ccc(O)cc1)NC(=O)[C@H](CO)NC(=O)[C@H](Cc1c[nH]c2ccccc12)NC(=O)[C@H](Cc1c[nH]cn1)NC(=O)[C@@H]1CCC(=O)N1 [Leuprorelin TFA]
- Solubility grading [3]: 1

SMILES: CCNC(=O)[C@@H]1CCCN1C(=O)[C@H](CCCNC(=N)N)NC(=O)[C@H](CC(C)C)NC(=O)[C@@H](CC(C)C)NC(=O)[C@H](Cc1ccc(O)cc1)NC(=O)[C@H](CO)NC(=O)[C@H](Cc1c[nH]c2ccccc12)NC(=O)[C@H](Cc1c[nH]cn1)NC(=O)[C@@H]1CCC(=O)N1 [Leuprorelin acetate]
- Solubility grading [3]: 2

— patent publication US11434258B2, “Compounds (immunorhelins)” (ISR IMMUNE SYSTEM REGULATION HOLDING AB (PUBL), priority 2017, dated 2022)
